# Test system: Stat1
# Assay: Activated Stat1 in kidney and lung lysates of LPS-treated mice (immunoblot)
# Type: in vivo, mouse
# Settings: LPS-treated mice of Table 5
# Source text: In order to more definitively determine if LPS-induced IFN-β signaling and LPS-induced increases in IRF-1 and IP-10 in vivo might be attenuated by an effect of C10 treatment on Stat1 activation, protein phosphorylation levels of Stat1 in whole tissue lysates were examined in mice from Table 5. […] In contrast neither LPS nor C10 had any effect on total Stat1 in these tissues (FIG. 8, bottom blots). […] Based on literature studies described in immune cells and results we have described in nonimmune cells (FIGS. 4-6; Tables 2, 3), it is reasonable to state that C10 blocks Stat1/IRF-1 signals in vivo as well as in vitro, this is important in the therapy of toxic shock where these genes are not only involved but critical to disease expression. C10 therapy is thus important in reducing pathologic changes in multiple tissues whose organ failure is known to contribute to the signs and symptoms of toxic shock.
# Immunoblot analysis of RAW 264.7 and mouse tissues: Nuclear and cytoplasmic extracts for RAW cells were prepared using NE-PER® extraction reagents (Pierce, Rockford, Ill.) in the presence of a protease inhibitor mixture (PMSF, leupeptin, and pepstatin A). […] Binding of HRP-conjugated goat anti-rabbit Ab (sc-2054; Santa Cruz Biotechnology, Inc., Santa Cruz, Calif.) was detected using the ECLplus Western Blotting Detection System (Amersham Biosciences, Piscataway, N.J.).
compound,measurement,value
"Cn1c(-c2ccccc2)cnc1S [Compound C10, 5-Phenylmethimazole]",activated (phosphorylated) Stat1 protein levels in kidney and lung,reduced to basal

# Reference: US9326972B2, “Use of phenylmethimazoles, methimazole derivatives, and tautomeric cyclic thiones for the treatment of autoimmune/inflammatory diseases associated with toll-like receptor overexpression” (Ohio University, priority 2004, dated 2016)
